Tests used:
[1] = tested on: aged, ovariectomized female rats; assay: Survival of aged ovariectomized female rats given 2-MD orally each day for 7.5 months; assay type: in vivo, rat
Method: Thus, the experiment was carried out as follows:
(§1) 48 retired female breeder rats of 12 months of age were obtained from the Harlan Sprague-Dawley Company. Upon arrival, the animals were ovariectomized or sham-operated. These animals were housed in individual hanging wire cages and provided water ad libitum. Food consumption was restricted to 19-21 g/day. Animals were maintained on a purified diet described by Suda et al (J. Nutr. 1970) which contained 0.47% calcium and 0.3% phosphorus. In addition, these animals received supplements of vitamin A, E, D, and K as described in the Suda paper. One half of the animals received each day 0.1 ml of Wesson Oil while the remaining one-half of the animals received orally the 0.1 ml of Wesson Oil containing 5 or 7 ng/2-MD/kg body weight. The animals were monitored weekly for body weight, general health and survival. These animals were followed for 7.5 months.

[2] = Body weight in aged female rats; assay type: in vivo; settings: at 7-1/2 months, 5 or 7 ng 2-MD/kg orally each day
Source text: as §1

calcium from bone = settings: compared to 1α,25-dihydroxyvitamin D3; cited from earlier work

## C=C1[C@H](O)CC(=C/C=C2\CCC[C@]3(C)[C@@H]([C@@H](C)CCCC(C)(C)O)CC[C@@H]23)C[C@H]1O [2-MD, 2-methylene-19-nor-20(S)-1α,25-dihydroxyvitamin D3]
[1]; 5 or 7 ng 2-MD/kg body weight orally each day, 7.5 months
  survival and general health over the entire period: survived the entire period and were in good health
[1]; aged, ovariectomized female rats, oral 2-MD each day, 7.5 months
  survival rate: 100%
[1]; ovariectomized or sham-operated retired female breeder rats, 12 months of age, 5 or 7 ng 2-MD/kg body weight orally each day in Wesson Oil, followed for 7.5 months
  Survival Ratio #premature deaths/total # animals: 0/24
[2]
  Body Weight Final: 382 ± 10 g
Calcium from bone
  ability to mobilize calcium from bone: very high activity
